# Experimental data: patent publication US20170276611A1, “CHALCOGENOPYRYLIUM DYES, COMPOSITIONS COMPRISING SAME, COMPOSITE NANOPARTICLES COMPRISING SAME, AND METHODS OF MAKING AND USING THE SAME” (The Research Foundation for The State University of New York, priority 2014, published 2017)
# Legend:
# Format in all cases: physicochemical
# [1] = Effect of counterion on colloidal stability of SERRS-nanoprobes; conditions: 10 μM dye
# Experimental: Effect of counterion on colloidal stability and SERRS-signal. […] Since SERRS is highly dependent on these factors, we evaluated the effect of the counterion (Z^−) on the SERRS spectrum, intensity, and colloidal stability of the pyrylium-based SERRS-nanoprobes. We compared chloride (Cl^−), bromide (Br^−), perchlorate (ClO4^−), and hexafluorophosphate (PF6^−) as counterions for chalcogenopyrylium dye 1a. The SERRS-nanoprobes were synthesized in the presence of equimolar amounts (10 μM) of CP dye 1a.Z^− (where Z^−═Cl^−, Br^−, ClO4^−, or PF6^−). The counterion introduces almost no difference in optical properties (e.g. absorption maxima, extinction coefficient). Furthermore, with the exception of the chloride counter-ion, the Raman shifts and intensity of 1a were minimally affected by the different counterions (FIG. 17 B). […] Since the PF6^− anion induced the least nanoparticle aggregation, it was used for further SERRS experiments.
# SERRS-nanoprobe characterization. […] The size and concentration of the SERRS-nanoprobes were determined on a Nanoparticle Tracking Analyzer (NTA; Malvern Instruments, Malvern, UK). Absorption spectra to determine possible nanoparticle aggregation (typically detectable at wavelengths >600 nm) were measured on an M1000Pro spectrophotometer (Tecan Systems Inc. San Jose, Calif.). […]
# [2] = UV/VIS-near-IR absorption of the dyes
# Experimental: Synthetic Methods. All reactions were performed open to air unless otherwise noted. Concentration in vacuo was performed on a rotary evaporator. NMR spectra were recorded at 300 or 500 MHz for ^1H and at 75.5 MHz for ^13C with residual solvent signal as internal standard. UV/VIS-near-IR spectra were recorded in quartz cuvettes with a 1-cm path length. Melting points were determined with a capillary melting point apparatus and are uncorrected. […] Pyranones 16b-16d are known compounds (J. Heterocycl. Chem. 1999, 36, 707-717). The synthesis of thiopyranone 16a and 4-methylpyrylium salt 15c is shown in Scheme 2. 4-Methylpyrylium salts 15a, 15d, and 15e have been reported previously in the literature (J. Org. Chem. 1982, 47, 5235-5239; Organometallics 1988, 7, 1131-1147; Dyes Pigm. 2000, 45, 1-7).
# [3] = Fluorescence of dyes incorporated in silica without gold nanoparticle; conditions: dye in silica without gold nanoparticle, excited at 785-nm, 50 μW/cm^2, 1.0 s
# From the text: Comparison of CP-dye 3 with a cyanine-based SERRS-reporter. In order to assess the quality of our optimized nanoprobe, thiopyrylium dye 3 and commercially available IR792 (FIG. 19 A), which has been previously used to generate surface-enhanced resonance Raman scattering nanoprobes, were studied. […] It is interesting to note that a fluorescence background is minimal in the SERRS spectra of the CP- and cyanine-based SERRS-nanoprobes. Whereas fluorescence interference would not be expected from chalcogenopyrylium dyes containing heavy chalcogens that enhance intersystem crossing, fluorescence interference could be expected for the cyanine dye IR792. […] This is due to quenching effects near the surface of the nanoparticle.
smiles,measurement,setting,value
"C(=Cc1cc(-c2ccccc2)[se+]c(-c2ccccc2)c1)C=C1C=C(c2ccccc2)[Se]C(c2ccccc2)=C1.F[P-](F)(F)(F)(F)F [Dye 1a, 4-(3-(2,6-diphenyl-4H-selenopyran-4-ylidene)prop-1-enyl)-2,6-diphenylselenopyrylium hexafluorophosphate]",colloidal stability of SERRS-nanoprobes,[1]; counterion Cl^−,strongly destabilized the gold colloids and caused aggregation
same,colloidal stability of SERRS-nanoprobes,[1]; counterion PF6^−,did not affect colloidal stability
same,Log (ε),"[2]; Table 2, Example 2 dyes",5.40
same,λmax (CH2Cl2),"[2]; Table 2, Example 2 dyes, CH2Cl2",806 nm
"ClC1=C(/C=C/c2cc(-c3cccs3)[s+]c(-c3cccs3)c2)CCC/C1=C\C=C1C=C(c2cccs2)SC(c2cccs2)=C1 [Dye 21, 4-((E)-2-((E)-2-chloro-3-(2-(2,6-di(thiophen-2-yl)-4H-thiopyran-4-ylidene)ethylidene)-cyclohex-1-en-1-yl)vinyl)-2,6-di(thiophen-2-yl)thiopyrylium hexafluorophosphate]",λmax (CH2Cl2),[2]; absorption maximum in CH2Cl2,1119 nm
CCCN1/C(=C\C=C2/CCCC(/C=C/C3=[N+](CCC)c4ccccc4C3(C)C)=C2Sc2ccccc2)C(C)(C)c2ccccc21 [IR792],fluorescence,[3],strong fluorescence
